Reference: ChEMBL document CHEMBL3804811 (J Med Chem, 2016)
pIC50: −log10 of the molar value. In brackets after ≈: the same amount, converted by molar mass.

Experiments:
Insulin receptor = Insulin receptor (Homo sapiens, UniProt P06213); assay: Inhibition of IR (unknown origin) in presence of gamma33-ATP
[1] = biological target: ALK tyrosine kinase receptor (Homo sapiens, UniProt Q9UM73)
Description: Inhibition of recombinant ALK (unknown origin) in presence of gamma33-ATP

[2] = Antiproliferative activity against human KARPAS299 cells incubated for 72 hrs by cell titer-glo assay; conditions: KARPAS-299, 72 h
[3] = Apparent permeability from apical to basolateral side in human Caco2 cells at 2.5 mg/ml after 2 hrs by reversed-phase HPLC method; type: ADME, cell-based; conditions: Caco-2
[4] = Clearance in Harlan nu/nu mouse at 10 mg/kg, iv administered as single dose by LC-MS/MS analysis; type: ADME, organism-based; conditions: in vivo
[5] = AUC (infinity) in Harlan nu/nu mouse at 10 mg/kg, iv administered as single dose by LC-MS/MS analysis; type: ADME, organism-based; set-up: dose 10 mg/kg, time infinity, route intravenous; conditions: in vivo
[6] = Intrinsic clearance in rat hepatocytes at […] after 10 to 90 mins by LC-MS/MS analysis; type: ADME, cell-based, Hepatocyte; conditions: read-out: CLH
[7] = Half life in Harlan nu/nu mouse at 10 mg/kg, iv administered as single dose by LC-MS/MS analysis; type: ADME, organism-based; conditions: in vivo
[8] = Cmax in Harlan nu/nu mouse at 10 mg/kg, iv administered as single dose by LC-MS/MS analysis; type: ADME, organism-based; set-up: dose 10 mg/kg, route intravenous; conditions: in vivo
[9] = Oral bioavailability in Harlan nu/nu mouse at 10 mg/kg administered as single dose by LC-MS/MS analysis; type: ADME, organism-based; conditions: in vivo
[10] = Tmax in Harlan nu/nu mouse at 10 mg/kg, po administered as single dose by LC-MS/MS analysis; type: ADME, organism-based; conditions: in vivo
[11] = Cmax in Harlan nu/nu mouse at 10 mg/kg, po administered as single dose by LC-MS/MS analysis; type: ADME, organism-based; set-up: dose 10 mg/kg, route oral; conditions: in vivo
[12] = Volume of distribution at steady state in Harlan nu/nu mouse at 10 mg/kg, iv administered as single dose by LC-MS/MS analysis; conditions: in vivo
[13] = Solubility of compound at pH 7 buffer; type: physicochemical
[14] = Apparent permeability from basolateral to apical side in human Caco2 cells at 2.5 mg/ml after 2 hrs by reversed-phase HPLC method; type: ADME, cell-based; conditions: Caco-2
[15] = AUC (infinity) in Harlan nu/nu mouse at 10 mg/kg, po administered as single dose by LC-MS/MS analysis; type: ADME, organism-based; set-up: dose 10 mg/kg, route oral, time infinity; conditions: in vivo
[16] = Intrinsic clearance in human liver microsomes at […] preincubated for 5 mins followed by NADPH addition measured after 5 to 30 mins by LC-MS/MS analysis; type: ADME; conditions: read-out: CLH
[17] = Half life in Harlan nu/nu mouse at 10 mg/kg, po administered as single dose by LC-MS/MS analysis; type: ADME, organism-based; conditions: in vivo

Sequence of ALK tyrosine kinase receptor (Q9UM73 whole entry): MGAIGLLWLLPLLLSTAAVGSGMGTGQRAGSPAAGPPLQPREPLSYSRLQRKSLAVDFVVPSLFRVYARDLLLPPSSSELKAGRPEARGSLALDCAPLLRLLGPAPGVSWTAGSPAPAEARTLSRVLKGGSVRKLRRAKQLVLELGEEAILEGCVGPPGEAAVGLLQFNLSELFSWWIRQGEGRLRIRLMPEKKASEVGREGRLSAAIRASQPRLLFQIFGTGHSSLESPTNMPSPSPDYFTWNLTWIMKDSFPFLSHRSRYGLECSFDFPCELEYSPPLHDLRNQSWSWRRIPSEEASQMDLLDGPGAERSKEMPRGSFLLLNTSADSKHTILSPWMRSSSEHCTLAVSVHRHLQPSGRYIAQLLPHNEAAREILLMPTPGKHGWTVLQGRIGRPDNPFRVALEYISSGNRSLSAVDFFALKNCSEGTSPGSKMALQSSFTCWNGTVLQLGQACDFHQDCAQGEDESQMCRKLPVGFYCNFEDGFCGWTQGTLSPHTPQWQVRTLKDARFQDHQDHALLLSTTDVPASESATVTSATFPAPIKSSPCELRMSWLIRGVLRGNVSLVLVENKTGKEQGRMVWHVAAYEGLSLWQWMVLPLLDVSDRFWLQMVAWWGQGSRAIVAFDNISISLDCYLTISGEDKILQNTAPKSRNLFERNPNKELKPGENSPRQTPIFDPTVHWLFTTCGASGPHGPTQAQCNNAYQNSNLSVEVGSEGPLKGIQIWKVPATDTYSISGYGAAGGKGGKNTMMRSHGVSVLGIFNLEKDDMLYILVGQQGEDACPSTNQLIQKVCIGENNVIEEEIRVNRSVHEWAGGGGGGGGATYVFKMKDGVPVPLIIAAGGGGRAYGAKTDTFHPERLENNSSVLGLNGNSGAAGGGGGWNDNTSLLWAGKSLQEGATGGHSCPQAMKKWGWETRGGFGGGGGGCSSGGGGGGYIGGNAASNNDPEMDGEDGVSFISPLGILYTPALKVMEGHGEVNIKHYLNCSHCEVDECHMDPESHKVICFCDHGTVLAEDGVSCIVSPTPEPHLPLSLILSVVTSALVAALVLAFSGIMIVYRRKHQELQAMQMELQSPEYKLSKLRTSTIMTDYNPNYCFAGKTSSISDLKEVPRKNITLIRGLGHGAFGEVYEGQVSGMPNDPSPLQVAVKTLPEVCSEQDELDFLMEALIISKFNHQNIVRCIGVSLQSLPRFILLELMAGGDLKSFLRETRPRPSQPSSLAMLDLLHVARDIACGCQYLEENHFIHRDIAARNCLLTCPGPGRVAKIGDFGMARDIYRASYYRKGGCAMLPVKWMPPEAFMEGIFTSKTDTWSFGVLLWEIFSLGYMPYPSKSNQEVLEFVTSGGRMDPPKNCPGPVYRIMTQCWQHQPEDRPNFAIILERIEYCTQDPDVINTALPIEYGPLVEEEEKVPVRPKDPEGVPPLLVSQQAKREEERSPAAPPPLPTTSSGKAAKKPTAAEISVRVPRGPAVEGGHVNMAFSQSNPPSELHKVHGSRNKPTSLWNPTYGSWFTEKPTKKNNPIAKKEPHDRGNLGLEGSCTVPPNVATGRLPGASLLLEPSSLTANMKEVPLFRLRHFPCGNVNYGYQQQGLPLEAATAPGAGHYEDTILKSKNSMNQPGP
Sequence of Insulin receptor (P06213 28-758 limits assumed): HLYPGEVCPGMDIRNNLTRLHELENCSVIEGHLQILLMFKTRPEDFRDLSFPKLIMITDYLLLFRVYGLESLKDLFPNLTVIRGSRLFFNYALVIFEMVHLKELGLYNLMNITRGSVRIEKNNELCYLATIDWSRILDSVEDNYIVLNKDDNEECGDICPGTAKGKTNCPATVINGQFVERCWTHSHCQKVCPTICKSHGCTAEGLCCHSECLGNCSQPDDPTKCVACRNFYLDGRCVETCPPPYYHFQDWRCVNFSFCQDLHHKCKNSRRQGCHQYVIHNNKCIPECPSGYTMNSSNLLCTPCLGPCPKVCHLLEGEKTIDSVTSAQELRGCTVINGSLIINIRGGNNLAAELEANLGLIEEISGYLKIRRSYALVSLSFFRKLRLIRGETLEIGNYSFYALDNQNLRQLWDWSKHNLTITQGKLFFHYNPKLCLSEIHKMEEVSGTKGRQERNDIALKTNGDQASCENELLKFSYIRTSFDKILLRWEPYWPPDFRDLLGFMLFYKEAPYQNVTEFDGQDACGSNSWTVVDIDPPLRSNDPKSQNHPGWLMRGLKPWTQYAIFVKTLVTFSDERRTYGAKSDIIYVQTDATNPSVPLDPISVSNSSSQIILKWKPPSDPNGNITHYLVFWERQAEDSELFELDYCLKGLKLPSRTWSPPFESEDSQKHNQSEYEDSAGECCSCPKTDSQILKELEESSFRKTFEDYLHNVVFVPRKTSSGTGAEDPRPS
Sequence of Insulin receptor (P06213 763-1382 limits assumed): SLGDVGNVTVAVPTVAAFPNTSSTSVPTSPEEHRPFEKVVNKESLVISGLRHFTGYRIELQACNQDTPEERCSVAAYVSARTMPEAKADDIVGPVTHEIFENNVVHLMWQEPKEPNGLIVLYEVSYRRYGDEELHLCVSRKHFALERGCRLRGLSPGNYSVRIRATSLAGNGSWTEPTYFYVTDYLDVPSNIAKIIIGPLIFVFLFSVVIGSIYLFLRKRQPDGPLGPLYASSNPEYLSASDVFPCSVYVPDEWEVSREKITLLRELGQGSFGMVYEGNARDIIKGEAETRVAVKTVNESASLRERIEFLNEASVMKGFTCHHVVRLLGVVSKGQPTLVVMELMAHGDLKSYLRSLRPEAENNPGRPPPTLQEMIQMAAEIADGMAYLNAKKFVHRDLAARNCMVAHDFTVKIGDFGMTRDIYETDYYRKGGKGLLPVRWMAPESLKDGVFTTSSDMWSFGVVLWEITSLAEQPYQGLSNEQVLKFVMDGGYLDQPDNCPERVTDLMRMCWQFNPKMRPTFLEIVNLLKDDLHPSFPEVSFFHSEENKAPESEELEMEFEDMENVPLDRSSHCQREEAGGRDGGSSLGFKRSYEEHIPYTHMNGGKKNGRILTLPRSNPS

| Compound | pIC50 (Insulin receptor) | pIC50 [1] | pIC50 [2] | also measured |
| --- | --- | --- | --- | --- |
| CN1CCN(c2ccc(C(=O)Nc3n[nH]c4ccc(Cc5cc(F)cc(F)c5)cc34)c(NCCO)c2)CC1 | 6.04 | 7.59 | 6.93 | – |
| COCCCNc1cc(N2CCN(C)CC2)ccc1C(=O)Nc1n[nH]c2ccc(Cc3cc(F)cc(F)c3)cc12 | 5.92 | 6.87 | 6.71 | – |
| CN1CCC(Nc2cc(N3CCN(C)CC3)ccc2C(=O)Nc2n[nH]c3ccc(Cc4cc(F)cc(F)c4)cc23)CC1 | 6.48 | 7.82 | 6.36 | Papp A→B at 2 h, 2.5 mg/ml [3]: 1.5 ×10⁻⁶ cm/s |
| CN1CCN(c2ccc(C(=O)Nc3n[nH]c4ccc(Cc5cc(F)cc(F)c5)cc34)c(N[C@H]3CC[C@H](O)CC3)c2)CC1 | 6.72 | 8.00 | 7.17 | clearance [4]: 21.3 mL/min/kg; AUC(0-inf) [5]: 13.1 µM·h; CLint scaled [6]: 45 mL/min/kg; half-life [7]: 181 min; Cmax [8]: 7.06 µM; bioavailability [9]: 7.3%; Papp A→B at 2 h, 2.5 mg/ml [3]: 1.8 ×10⁻⁶ cm/s; Tmax [10]: 1 h; Cmax [11]: 360 nM; Vd [12]: 3.02 L/kg; solubility [13]: 7 µM (≈ 4.02 µg/mL); Papp B→A at 2 h, 2.5 mg/ml [14]: 5.1 ×10⁻⁶ cm/s; AUC(0-inf) [15]: 1.25 µM·h; CLint scaled [16]: 25 mL/min/kg |
| CN1CCN(c2ccc(C(=O)Nc3n[nH]c4ccc(Cc5cc(F)cc(F)c5)cc34)c(N)c2)CC1 | 5.89 | 7.17 | 6.67 | – |
| Cc1ccc(F)cc1Cc1ccc2[nH]nc(NC(=O)c3ccc(N4CCN(C)CC4)cc3NC3CCOCC3)c2c1 | 6.08 | 6.74 | 6.07 | – |
| C[C@H](c1cc(F)cc(F)c1)c1ccc2[nH]nc(NC(=O)c3ccc(N4CCN(C)CC4)cc3NC3CCOCC3)c2c1 | 5.93 | 7.23 | 7.39 | – |
| CN1CCC(Oc2ccc(C(=O)Nc3n[nH]c4ccc(Cc5cc(F)cc(F)c5)cc34)c(NC3CCOCC3)c2)CC1 | 6.71 | 8.05 | 7.37 | clearance [4]: 8.16 mL/min/kg; AUC(0-inf) [5]: 33.1 µM·h; half-life [17]: 245 min; CLint scaled [6]: 49 mL/min/kg; half-life [7]: 296 min; Cmax [8]: 6.93 µM; bioavailability [9]: 29.3%; Papp A→B at 2 h, 2.5 mg/ml [3]: 0.3 ×10⁻⁶ cm/s; Tmax [10]: 6 h; Cmax [11]: 800 nM; Vd [12]: 2.62 L/kg; solubility [13]: 59 µM (≈ 34 µg/mL); Papp B→A at 2 h, 2.5 mg/ml [14]: 2 ×10⁻⁶ cm/s; AUC(0-inf) [15]: 11 µM·h; CLint scaled [16]: 12 mL/min/kg |
| COCCNc1cc(N2CCN(C)CC2)ccc1C(=O)Nc1n[nH]c2ccc(Cc3cc(F)cc(F)c3)cc12 | 5.75 | 6.68 | 6.61 | – |
| CN1CCN(c2ccc(C(=O)Nc3n[nH]c4ccc(Cc5cc(F)cc(F)c5)cc34)c(NCc3ccccc3)c2)CC1 | 5.43 | 6.42 | 5.90 | – |
| CN1CCN(c2ccc(C(=O)Nc3n[nH]c4ccc(Cc5cc(F)cc(F)c5)cc34)cc2)CC1 | 5.74 | 7.14 | 6.60 | – |
| CN1CCN(c2ccc(C(=O)Nc3n[nH]c4ccc(Cc5cc(F)cc(F)c5)cc34)c(N[C@H]3CC[C@@H](O)CC3)c2)CC1 | 6.15 | 7.01 | 6.79 | – |
| C[C@@H](c1cc(F)cc(F)c1)c1ccc2[nH]nc(NC(=O)c3ccc(N4CCN(C)CC4)cc3NC3CCOCC3)c2c1 | 6.72 | 7.72 | 7.80 | – |
| CN1CCN(c2ccc(C(=O)Nc3n[nH]c4ccc(Cc5ccccc5)cc34)c(NC3CCOCC3)c2)CC1 | 5.83 | 6.97 | 6.74 | – |
| CN1CCN(c2ccc(C(=O)Nc3n[nH]c4ccc(Cc5cc(F)cc(F)c5)cc34)c(NCCF)c2)CC1 | 6.34 | 7.85 | 7.31 | clearance [4]: 11.7 mL/min/kg; AUC(0-inf) [5]: 24.7 µM·h; half-life [17]: 592 min; CLint scaled [6]: 18 mL/min/kg; half-life [7]: 355 min; Cmax [8]: 7.58 µM; bioavailability [9]: 99%; Papp A→B at 2 h, 2.5 mg/ml [3]: 2.4 ×10⁻⁶ cm/s; Tmax [10]: 4.33 h; Cmax [11]: 1880 nM; Vd [12]: 4.76 L/kg; solubility [13]: 16 µM (≈ 8.36 µg/mL); Papp B→A at 2 h, 2.5 mg/ml [14]: 1.5 ×10⁻⁶ cm/s; AUC(0-inf) [15]: 31.5 µM·h; CLint scaled [16]: 24 mL/min/kg |
| O=C(Nc1n[nH]c2ccc(Cc3cc(F)cc(F)c3)cc12)c1ccc(CN2CCCCC2)cc1NC1CCOCC1 | 6.19 | 7.74 | 7.42 | clearance [4]: 32.1 mL/min/kg; AUC(0-inf) [5]: 7.97 µM·h; half-life [17]: 135 min; CLint scaled [6]: 229 mL/min/kg; half-life [7]: 91.2 min; Cmax [8]: 5.69 µM; bioavailability [9]: 18%; Papp A→B at 2 h, 2.5 mg/ml [3]: 1.1 ×10⁻⁶ cm/s; Tmax [10]: 0.83 h; Cmax [11]: 360 nM; Vd [12]: 2.63 L/kg; solubility [13]: 84 µM (≈ 47 µg/mL); Papp B→A at 2 h, 2.5 mg/ml [14]: 1.9 ×10⁻⁶ cm/s; AUC(0-inf) [15]: 1.51 µM·h; CLint scaled [16]: 40 mL/min/kg |
| COCC(COC)Nc1cc(N2CCN(C)CC2)ccc1C(=O)Nc1n[nH]c2ccc(Cc3cc(F)cc(F)c3)cc12 | 5.78 | 7.00 | 6.47 | – |
| CN1CCN(c2ccc(C(=O)Nc3n[nH]c4ccc(Cc5cccc(F)c5)cc34)c(NC3CCOCC3)c2)CC1 | 6.37 | 7.52 | 7.74 | – |
| COC[C@@H](C)Nc1cc(N2CCN(C)CC2)ccc1C(=O)Nc1n[nH]c2ccc(Cc3cc(F)cc(F)c3)cc12 | 5.97 | 7.14 | 7.13 | – |
| CN1CCN(c2ccc(C(=O)Nc3n[nH]c4ccc(Cc5cc(F)cc(F)c5)cc34)c(NCC3CN(C)C3)c2)CC1 | 6.45 | 7.17 | 6.41 | – |
| CN(C)CCN(C)C(=O)c1ccc(C(=O)Nc2n[nH]c3ccc(Cc4cc(F)cc(F)c4)cc23)c(NC2CCOCC2)c1 | 6.34 | 7.82 | 7.30 | clearance [4]: 38.8 mL/min/kg; AUC(0-inf) [5]: 7.86 µM·h; CLint scaled [6]: 42 mL/min/kg; half-life [7]: 170 min; Cmax [8]: 10.3 µM; Papp A→B at 2 h, 2.5 mg/ml [3]: 2.7 ×10⁻⁶ cm/s; Vd [12]: 4.41 L/kg; solubility [13]: 51 µM (≈ 30.1 µg/mL); Papp B→A at 2 h, 2.5 mg/ml [14]: 19.8 ×10⁻⁶ cm/s; CLint scaled [16]: 57 mL/min/kg |
| CN1CCN(c2ccc(C(=O)Nc3n[nH]c4ccc(Cc5cc(F)ccc5F)cc34)c(NC3CCOCC3)c2)CC1 | 6.77 | 7.42 | 7.31 | – |
| CN1CCN(c2ccc(C(=O)Nc3n[nH]c4ccc(Cc5cc(F)cc(F)c5)cc34)c(Nc3ccccc3)c2)CC1 | 5.01 | 6.16 | 6.00 | – |
| CN1CCN(c2ccc(C(=O)Nc3n[nH]c4ccc(Cc5cc(F)cc(F)c5)cc34)c(NC3CCCCC3)c2)CC1 | 5.42 | 6.25 | 6.22 | – |
